Data from patent US11969408B2, “Method for improving mitophagy in subjects” (Amazentis SA, priority 2017, dated 2024).

Assay: Steady state plasma levels of total Urolithin A over 4-week dosing
Assay type: in vivo, human
Settings: Day 31 and Day 32
Description: A double-blind, randomized, placebo controlled clinical trial was conducted in healthy elderly to establish the steady state levels of Urolithin A in plasma. Elderly subjects (61-82 years) (n=9), participated in each group of dosing. The subjects met all the inclusion and exclusion criteria of the study and signed informed consent. The subjects were overnight fasted and the plasma was collected in the morning before breakfast to assess steady state levels. Subjects were given a dose of Urolithin or placebo each morning for the 28 day trial. The urolithin A was given as softgel capsules containing 250 mg of Urolithin A in each capsule. Plasma samples were collected for assessment of Urolithin A steady state concentrations in the 4-week Urolithin A study at the following time points (Day 0, Day 7, Day 14, Day 28, Day 29, Day 31, and Day 32). […] On day 28 the subjects were admitted to a Phase 1 clinical trial unit and the kinetics of Urolithin A absorption, and elimination following multiple 4-week dosing were followed until 96 hours following the last dosing on Day 28. Plasma was collected at the following time-points post last dosing with Urolithin A on Day 28: pre-dose, 1 hr, 2 hr, 4 hr, 6 hr, 8 hr, 12 hr, 24 hr, 72 hr and 96 hr. […] The exact time of sample collection was recorded on the eCRF (electronic case report from). […]

O=c1oc2cc(O)ccc2c2ccc(O)cc12 [Urolithin A]
steady state levels after the end of the 4-week UA administration: gradually declined
